The source of these data is patent publication US10077293B2, “Antimicrobial peptide analogues derived from abalone (Haliotis discus) and antimicrobial pharmaceutical composition containing the same” (priority 2016, dated 2018).

Test [1] deals with Gram positive and Gram negative bacteria. The following applies: background statement; cited from earlier work.
For test [2], the system named is C. albicans. The following applies: parent peptide, background statement; cited from earlier work.
Test [3] relates to E. coli ML35p. Put plainly: Chromogenic bacteriolytic plate assay. Format: cell-based. Particulars: E. coli ML35p (FIG. 6). The method, then:
In order to investigate the lytic activity of the analogues for bacterial membrane, chromogenic bacteriolytic plate assay was conducted using E. coli ML35p containing a chromosomal IPTG-inducible β-galactosidase gene (Mardones, G., Venegas, A. Chromogenic plate assay distinguishing bacteriolytic from bacteriostatic activity of an antibiotic agent. J Microbiol Methods. 2000, 40(3), 199-206). After inoculating 2 mL of E. coli ML35p to TSB and culturing at 37° C. for 16-18 hours, a mixture of 50 μL of the cultured microorganism solution, 10 μL of 1 mM IPTG and 50 μL of 50 mg/mL X-gal was poured onto TSB containing 0.8% agarose at 42° C. the next day. After boring a well on the solidified plate, 5 μL of each peptide analogue solution was introduced and incubation was conducted for 3 hours. Then, after pouring 2×TSB containing 10 mL of 1.5% agarose to the plate and solidifying, incubation was conducted again for 16-18 hours. After the incubation, the size (diameter) of a clearing zone and the presence or absence of a blue line at the edge portion were investigated.

The test system of another test is E. coli D31. Kind of test: Ultrasensitive radial diffusion assay (URDA), antimicrobial activity. Format: cell-based. The following applies: E. coli D31, Gram −. The method, then:
(§1) Four species of Gram positive bacteria (Bacillus subtilis, Staphylococcus epidermidis, […] and Propionibacterium acnes), five species of Gram negative bacteria (E. coli D31, E. coli ML35p, Shigella flexneri, Pseudomonas aeruginosa and Vibrio parahaemolyticus) and one yeast species (Candida albicans) were used for experiments. The antimicrobial activity was measured by ultrasensitive radial diffusion assay (URDA) using two layers of media of different concentrations. First, the microorganisms were pre-cultured in each medium for 18 hours and the concentration of the microorganisms was adjusted to 84% T (≈1×10^8 CFU/mL) using a colorimeter (Product No. 52-1210, BioMerieux, Inc., USA). Then, 0.5 mL of the diluted microorganism solution was added to an underlay gel containing 9.5 mL of 0.03% TSB, 1% type I agarose and 10 mM phosphate buffer (PB; pH 6.5) and plated and solidified on a plate after mixing well. After boring a well with a diameter of 2.5 mm on the solidified plate using a punch, 5 μL of each analogue solution was introduced. All the analogues were dissolved in 5 μL of 0.01% acetic acid to avoid any effect of solvent. After the analogue permeated into the medium, the microorganisms were cultured for 3 hours and an overlay gel containing 10 mL of 6% TSB, 1% type I agarose and 10 mM phosphate buffer (pH 6.5) was poured and solidified. Then, the microorganisms were cultured again for 18 hours at the same temperature. Next day, the antimicrobial activity was determined by measuring the size (diameter) of a clear zone formed around the well. Piscidin 1, an antimicrobial peptide derived from the mast cells of a hybrid striped bass, was used as a control.

Test [4] relates to Shigella flexneri KCTC2009. Described as above. Format: cell-based. Particulars: Shigella flexneri KCTC2009, Gram −. The method, then:
as §1

For test [5], the system named is Vibrio parahaemolyticus KCCM42264. Described as above. Format: cell-based. As to the method:
as §1

Test [6] has as its system E. coli ML35p. Described as above. Format: cell-based. Particulars: Gram −. As to the method:
as §1

Test [7] deals with E. coli ML35p. Put plainly: Killing kinetics study. Format: cell-based. As to the method:
For killing kinetics study of the analogues whose bactericidal process was identified, killing rate for each analogue was investigated at 1×MIC and 5×MIC for 60 minutes. For this, the analogue was added to an e-tube containing 10^6 CFU/mL of E. coli ML35p. While incubating at 37° C., 10 μL of the solution was taken from the tube at predetermined times (5, 10, 20, 30, 40, 50 and 60 minutes after the addition of the analogue) and plated on a TSA plate. Then, the number of formed colonies was counted. As control groups, no analogue or piscidin 1 was added. The killing % for the analogues was represented as the number of formed colonies relative to that when no analogue was added.

Test [8] deals with C. albicans. Kind of test: Ultrasensitive radial diffusion assay (URDA), antimicrobial activity. Format: cell-based, Candida albicans. The method, then:
as §1

A further test has as its system S. mutans KCCM40105. Described as above. The following applies: S. mutans KCCM40105, Gram +. Format: cell-based, Streptococcus mutans. The method, then:
as §1

The subject of another test is B. subtilis KCTC1021. Described as above. Format: cell-based, Bacillus subtilis. Particulars: B. subtilis KCTC1021, Gram +. The method, then: as §1
The test system of another test is P. aeruginosa KCTC2004. The description is as above. Format: cell-based, Pseudomonas aeruginosa. Particulars: P. aeruginosa KCTC2004, Gram −. As to the method:
as §1

“Also recorded” adds a separate entry of the source. Ends that are not written are not given here.

As to “hdMolluscidin (AATKPKKAGAEAAPKKPAKKQTKKKPAKKAGGKKKPKRAGAKKAKK; listed as Haliotis discus) [antimicrobial peptide consisting of 46 amino acids, purified from the gill of abalone (Haliotis discus); parent peptide]”, the “antimicrobial activity against Gram positive and Gram negative bacteria (in words)” value in [1] was “strong antimicrobial activity”. In the test on C. albicans [2], the “antimicrobial activity against C. albicans (in words)” value is listed as “little antimicrobial activity; also recorded: no activity”.

As for “FFHHIFRGIVHVGKTIHRLVTG-NH2 [Piscidin 1, reference compound]”, in the test with E. coli ML35p [3], the “bacteriolytic activity: blue line at the edge portion of the clearing zone” value is “showed an edge line”. In addition, the Minimal effective concentration in the test on E. coli D31 was 3.8 µg/mL; in test [4] it was 8.0 µg/mL; in test [5], 3.0 µg/mL; in the test on E. coli ML35p [6], 2.3 µg/mL; in the test on C. albicans [8] (C. albicans KCCM42264 (as printed in Table 2), yeast), more than 62.5 µg/mL; in the test with C. albicans [8] (C. albicans KCTC7965, yeast) it was more than 62.5 µg/mL. The Minimal effective concentration in the test on S. mutans KCCM40105 turned out to be 3.2 µg/mL; in the test with B. subtilis KCTC1021 it was 7.5 µg/mL; in the test with P. aeruginosa KCTC2004, 8.0 µg/mL. Besides, the results for the “time to kill E. coli ML35p” value with E. coli ML35p [7] (1×MIC) and in the test on E. coli ML35p [7] (5×MIC) were not above 20 min and not above 5 min, respectively.
